According to patent US20180185325A1, “12H-BENZO[b]XANTHEN-12-ONES, COMPOSITIONS CONTAINING, AND USES OF, SAME” (Thesan Pharmaceuticals, Inc., priority 2015, published 2018):

Assays:
[1] = biological target: T1, Aryl Hydrocarbon Receptor (Homo sapiens, UniProt P35869); assay: AhR activation luciferase reporter in NHK-plox-XRE TATA-Luc cells; assay type: cell-based; conditions: 24 h, 1-10 uM
T1 construct: endogenous in cells; host or cells: Hep G2 cells stably transduced with the lentivector plox-XRE TATA-Luc (reporter only)
T1 sequence (P35869 11-848): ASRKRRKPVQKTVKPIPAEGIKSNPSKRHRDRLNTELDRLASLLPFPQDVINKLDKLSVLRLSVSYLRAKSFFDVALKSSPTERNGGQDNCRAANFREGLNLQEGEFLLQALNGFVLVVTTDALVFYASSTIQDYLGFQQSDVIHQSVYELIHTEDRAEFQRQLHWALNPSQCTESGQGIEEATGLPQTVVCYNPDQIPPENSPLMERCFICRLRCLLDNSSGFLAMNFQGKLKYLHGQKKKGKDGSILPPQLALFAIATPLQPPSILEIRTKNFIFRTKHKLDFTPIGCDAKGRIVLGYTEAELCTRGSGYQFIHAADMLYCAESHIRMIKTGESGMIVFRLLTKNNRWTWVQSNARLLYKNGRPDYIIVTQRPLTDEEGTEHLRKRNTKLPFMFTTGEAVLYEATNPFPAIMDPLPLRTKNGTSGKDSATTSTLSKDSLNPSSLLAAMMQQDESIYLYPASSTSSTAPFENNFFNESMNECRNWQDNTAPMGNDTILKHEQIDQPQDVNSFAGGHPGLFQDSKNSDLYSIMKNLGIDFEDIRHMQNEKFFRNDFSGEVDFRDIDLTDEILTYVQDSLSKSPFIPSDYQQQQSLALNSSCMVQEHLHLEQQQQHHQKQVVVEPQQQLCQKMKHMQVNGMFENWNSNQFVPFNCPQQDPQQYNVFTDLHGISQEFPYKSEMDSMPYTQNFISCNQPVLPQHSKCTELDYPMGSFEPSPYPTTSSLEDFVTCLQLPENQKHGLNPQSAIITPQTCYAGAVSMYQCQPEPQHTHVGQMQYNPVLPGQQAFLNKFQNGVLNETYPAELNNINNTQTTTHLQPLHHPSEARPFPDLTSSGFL
Protocol: AhR activation is also measured in human skin cells such as normal human keratinocytes (NHK cells) or A431 epidermoid cells stably transfected with the lentivector plox-XRE TATA-Luc. The NHK cells are cultured in a specific keratinocyte SFM medium (Gibco)+penicillin+streptomycin. At D0, the NHK cells are seeded into 6-well plates in a proportion of approximately […]. After 24 h, the medium is replaced with fresh medium and the cells are transduced with the lentivector plox-XRE TATA-Luc. After 48 h, the cells are subcultured and maintained in culture, and tested for their reactivity to 3-phenyl-1H-benzo[f]chromen-1-one. The tests are carried out using the luciferase reporter assay system kit from Promega. At D0, the cells are seeded at a density of approximately 60% confluence, and then treated, at D1, with the test substance diluted to various concentrations in the appropriate culture medium. At D2, the cells are lysed in CLB buffer, and the lysate is clarified by centrifugation for 5 min at 10 000 g. The luciferase activity is measured in 20 microliters of lysate as recommended by the supplier, using the luminoskan luminometer (Thermo). […] Data is processed and EC50's can be calculated from standard data monitoring software.

[2] = biological target: T1, Aryl Hydrocarbon Receptor; assay: AhR activation luciferase reporter in Hep G2-plox-XRE TATA-Luc cells; assay type: cell-based; conditions: 24 h, 1-10 uM
Protocol: AhR activation is measured in HEP G2 cells (hepatocytes, Hep G2 is a human liver carcinoma cell line) stably transfected with the lentivector plox-XRE TATA-Luc. The Hep G2 cells are cultured in a growing media consisting of DMEM (Gibco)+10% fetal bovine serum+penicillin+streptomycin. At D0, the Hep G2 cells are seeded into 12-well plates in proportions of approximately 30,000 cells/cm^2. After 24 h, the medium is replaced with fresh medium and the cells are transduced with the lentivector plox-XRE TATA-Luc. After 48 h, the cells are subcultured and maintained in culture, and tested for their reactivity to 3-phenyl-1H-benzo[f]chromen-1-one. The tests are carried out using the luciferase reporter assay system kit from Promega. At D0, the cells are seeded at a density of approximately 60% confluence, and then treated, at D1, with the test substance diluted to various concentrations in the appropriate culture medium. At […], the cells are lysed in CLB buffer, and the lysate is clarified by centrifugation for 5 min at 10 000 g. The luciferase activity is measured in 20 microliters of lysate as recommended by the supplier, using the luminoskan luminometer (Thermo). […] Data is processed and EC50's can be calculated from standard data monitoring software.

CYP1A1 [3] = assay: EROD assay in HepG2 cells (cleavage of 7-ethoxyresorufin to resorufin); assay type: cell-based, human; conditions: human, probe 7-ethoxyresorufin (8 μM)
Protocol: (§1) HepG2 cells are seeded at between 1×10^4 and 2.5×10^4 cells/well in a 96-well microtitre plate. […] The formation of resorufin is quantified by fluorometry with a fluorescence plate reader. Fluorescence is determined at λex 570 nm and λem 590 nm. […] The remaining (i.e. all cells present at the beginning of analysis, since only supernatant is taken to assay EROD) live cells are subsequently utilized for the MIT cytotoxicity assay. […] The medium is carefully removed, then MIT formazan is solubilized by adding 200 μl of DMSO and subsequently mixed on a plate shaker. The absorbance is measured spectrophotometrically at 550 nm and background absorbance at 690 nm is subtracted.

HepG2 cells = assay: MTT cytotoxicity assay in HepG2 cells; assay type: cell-based, human
Protocol: as §1

CYP1A1 mRNA = CYP1A1 mRNA assay in HepG2 cells (RT-PCR); assay type: cell-based, human; conditions: 10 uM
Protocol: HepG2 cells (American Type Culture Collection (ATCC), Manassas, Va.) were cultured using Eagle's minimal essential medium (ATCC), supplemented with 10% fetal calf serum (Invitrogen Life Technologies). […] Cells were plated at a seeding density of 3.8×10^5 cells per well on 6-well plates (Corning Costar, NY, U.S.A.). Cells were allowed to attach for 24 h in a 37° C. humidified incubator with a 5% CO2 atmosphere. Media was replaced with that containing test agents or vehicle (0.1% dimethylsulphoxide) and cells incubated for a further 24 h. Following the 24 h incubation with test agents, media was removed and RNA prepared using the Purelink RNA mini kit (ThermoFischer, Carlsbad, Calif.). Nucleic acid concentration was determined using a Nanodrop™ spectrophotometer (ThermoScientific) by measuring the OD at 260 nm and RNA purity was evaluated using the OD 260/280 nm ratio. 1 μg RNA was reverse transcribed using SuperScript®VILO™ (ThermoFischer) with cDNA synthesis performed using the following parameters: 10 min at 25° C., 2 h at 42° C., 5 min at 85° C. (deactivation) followed by a completion temperature of 4° C. […] Each sample (1 μl) was pipetted into a 96-well optical reaction plate (Applied Biosystems, Carlsbad, Calif.). […] Results were analyzed by calculating the fold change of CYP1A1 mRNA levels normalized to 18S rRNA (ΔΔCt) in compound treated cells or tissues compared to vehicle levels.

human sebocyte cells = assay: MTT cytotoxicity assay in human cultured sebocytes; assay type: cell-based
Protocol: (§2) Cells are seeded at between 1×10^4 and 2.5×10^4 cells/well in a 96-well microtitre plate. […] The formation of resorufin is quantified by fluorometry with a fluorescence plate reader. Fluorescence is determined at λex 570 nm and […]. The amount of resorufin is calculated from a standard curve generated using 0 to 1 μM resorufin in water at 34 log dilutions. The remaining (i.e. all cells present at the beginning of analysis, since only supernatant is taken to assay EROD) live cells are subsequently utilized for the MIT cytotoxicity assay. MIT is made up in serum-free medium at 5 mg/ml. then added to the cells giving a final concentration of 10% (0.5 mg/ml MIT final) then incubated for 2 h. The medium is carefully removed, then MTT formazan is solubilized by adding 200 μl of DMSO and subsequently mixed on a plate shaker. The absorbance is measured spectrophotometrically at 550 nm and background absorbance at 690 nm is subtracted. A standard curve generated using MTT formazan (dissolved in DMSO) from 0-200 μM (0, 2, 5, 10, 20, 50, 100, 200 μM) is used to calculate the final experimental values which are then expressed as (μmol resorufin/mol MIT formazan) or as fold-induction compared to solvent.

sebaceous glands = assay: Mouse ear assay for sebaceous gland prevalence; assay type: in vivo, C57BL/6J mice; conditions: topical 1% solution in DMSO:acetone 50:50, twice a day for five days, vs controls
Protocol: C57BL/6J male mice (Harlan Models), approximately 4-5 weeks of age, body weight 20-30 g, were acclimatized (individually housed) for 5 days in a 12 hour light/dark cycle standard laboratory environment (T=20-24° C., relative humidity 30-70%, 15-20 air changes per hour) with access to water and standard rodent chow (Harlan Tekiad 2014C supplied by Harlan Laboratories Models, S.L.) ad libitum. Animals were anesthetized with isoflurane and the test article (80 ul, 1% solution in DMSO:acetone 50:50) was administered to the outer surface of each of the ears of between 2 and 5 mice twice a day for five days by dermal application using a micropipette tip (a little volume of the solution was also applied on the inner side of the ears). All animals were monitored daily for reaction to the treatment, signs of illness, and behavioral changes. Body weights were recorded before the first administration and immediately prior to sacrifice. Approximately 12 to 16 hours after the final administration on day 5 the mice were sacrificed by i.p. injection of sodium pentobarbital (200 mg/kg) and the ears were collected. Each ear was sectioned into two halves. For each animal, one-half of one ear was fixed, in neutral phosphate-buffered 4% formaldehyde solution (4% formalin). This trimmed section of the ear was then processed, embedded in paraffin wax and stored at room temperature. […]

CYP1A1 [4] = assay: EROD assay in human cultured sebocytes; assay type: cell-based; conditions: cultured sebocytes, probe 7-ethoxyresorufin (8 μM)
Protocol: as §2

CYP1A1 enzyme [5] = assay: EROD assay in HepG2 cells (cleavage of 7-ethoxyresorufin to resorufin); assay type: cell-based, human; conditions: 10 uM, 24 h
Protocol: as §1

CYP1A1 enzyme [6] = assay: EROD assay in human cultured sebocytes; assay type: cell-based; conditions: 10 uM, 24 h
Protocol: as §2

Compound	EC50 at 24 h (CYP1A1 [3]) [µM]	Toxicity threshold (HepG2 cells; human, 24 h) [µM]	Toxicity threshold (human sebocyte cells) [µM]	EC50 at 24 h (CYP1A1 [4]) [µM]	also measured
O=c1cc(-c2ccccc2)oc2ccc3ccccc3c12 [3-phenyl-1H-benzo[f]chromen-1-one, 3-Phenyl-1H-benzo[f]chromen-1-one]					induction of luciferase activity [1]: a significant induction; induction of the luciferase activity [2]: a significant induction
O=c1c2ccccc2oc2ccc3ccccc3c12 [Compound C]	2.5	>30	>30	0.2	induction of CYP1A1 mRNA (in words) (CYP1A1 mRNA): potent inducer; number of differentiated sebocytes (sebaceous glands): a reduction; number of sebaceous glands (sebaceous glands): a clear reduction
O=c1cc(-c2ccccc2)oc2ccc3ccccc3c12 [Compound D, 3-Phenyl-1H-benzo[f]chromen-1-one, reference compound]			30		% change vs. TCDD EROD (HepG2) at 10 uM (CYP1A1 enzyme [5]): 19%; Toxicity threshold (HepG2 cells; HepG2 cells, MTT): >50 µM; CYP1A1 mRNA fold change from vehicle (CYP1A1 mRNA; 24 h incubation, normalized to 18S rRNA): 596 fold; % change vs. TCDD EROD (Sebs) at 10 uM (CYP1A1 enzyme [6]): 17%
COc1ccc2oc3ccc4ccccc4c3c(=O)c2c1 [Compound K]	0.5	>100	>50	0.5	
O=c1c2cc(O)ccc2oc2ccc3ccccc3c12 [Compound L]	0.6	>100	>50	0.5	
COc1ccc2c(=O)c3c(ccc4ccccc43)oc2c1 [Compound M]	3	>30	50		
O=c1c2ccc(O)cc2oc2ccc3ccccc3c12 [Compound N]	1.5	>30	>50		
COc1cccc2c(=O)c3c(ccc4ccccc43)oc12 [Compound O]		>100	>100		
O=c1c2cccc(O)c2oc2ccc3ccccc3c12 [Compound P]	2	>100	>100	0.2	
